Assay results taken from ChEMBL document CHEMBL4402548, “Discovery of novel tRNA-amino acid dual-site inhibitors against threonyl-tRNA synthetase by fragment-based target hopping” (Eur J Med Chem, 2020).
Converted amounts (≈) assume the structure as drawn.

Legend:
Salmonella enterica [1] = assay: Binding affinity to Salmonella enterica Threonyl-tRNA synthetase assessed as change in melting temperature at 0.5 mM incubated for 10 mins by SYPRO orange dye-based thermal shift assay
Staphylococcus aureus [2] = assay: Antibacterial activity against methicillin-resistant Staphylococcus aureus R3708 by visual method; type: functional
Salmonella enterica [3] = assay: Antibacterial activity against Salmonella enterica 87 by visual method; type: functional
Salmonella enterica [4] = assay: Inhibition of Salmonella enterica Threonyl-tRNA synthetase assessed as reduction in aminoacylation activity at 100 uM using L-threonine as substrate incubated for 3 hrs by Kinase-glo luminescence assay relative to control
Pseudomonas aeruginosa = assay: Antibacterial activity against Pseudomonas aeruginosa ATCC 27853 by visual method; type: functional
Staphylococcus aureus [5] = assay: Antibacterial activity against Staphylococcus aureus ATCC 29213 by visual method; type: functional
Enterococcus faecalis = assay: Antibacterial activity against Enterococcus faecalis ATCC 29212 by visual method; type: functional
Escherichia coli = assay: Antibacterial activity against Escherichia coli ATCC 25922 by visual method; type: functional
[6] = Inhibition of Salmonella enterica Threonyl-tRNA synthetase assessed as reduction in aminoacylation activity using L-threonine as substrate in presence of incubated for 3 hrs by Kinase-glo luminescence assay
[7] = Binding affinity to Salmonella enterica Threonyl-tRNA synthetase at 200 uM by isothermal titration calorimetry

SMILES: O=C(CC1NCCCC1O)Cn1cnc2cc(Br)c(Cl)cc2c1=O (stereo unspecified) [HALOFUGINONE]
- ΔTm (Salmonella enterica [1]): -1.4 °C
- MIC (Staphylococcus aureus [2]): 64 µg/mL (≈ 154 µM)
- MIC (Salmonella enterica [3]): 64 µg/mL (≈ 154 µM)
- inhibition (Salmonella enterica [4]): 5%
- MIC (Pseudomonas aeruginosa): 64 µg/mL (≈ 154 µM)
- MIC (Staphylococcus aureus [5]): 64 µg/mL (≈ 154 µM)
- MIC (Enterococcus faecalis): 128 µg/mL (≈ 309 µM)
- MIC (Escherichia coli): 64 µg/mL (≈ 154 µM)

SMILES: C[C@@H](O)[C@H](N)C(=O)NS(=O)(=O)c1cccc(-c2ccc3[nH]ncc3c2)c1
- ΔTm (Salmonella enterica [1]): 29.5 °C
- MIC (Staphylococcus aureus [2]): > 256 µg/mL
- IC50 [6]: 0.13 µM
- MIC (Salmonella enterica [3]): > 256 µg/mL
- inhibition (Salmonella enterica [4]): 100%
- MIC (Pseudomonas aeruginosa): > 256 µg/mL
- MIC (Staphylococcus aureus [5]): > 256 µg/mL
- MIC (Enterococcus faecalis): > 256 µg/mL
- MIC (Escherichia coli): > 256 µg/mL

SMILES: C[C@@H](O)[C@H](N)C(=O)NC/C=C/Cn1cnc2cc(Br)c(Cl)cc2c1=O
- ΔTm (Salmonella enterica [1]): 22.5 °C
- MIC (Staphylococcus aureus [2]): 64 µg/mL (≈ 149 µM)
- IC50 [6]: 3.2 µM
- MIC (Salmonella enterica [3]): 16 µg/mL (≈ 37.2 µM)
- inhibition (Salmonella enterica [4]): 99%
- MIC (Pseudomonas aeruginosa): 32 µg/mL (≈ 74.5 µM)
- MIC (Staphylococcus aureus [5]): 32 µg/mL (≈ 74.5 µM)
- MIC (Enterococcus faecalis): 64 µg/mL (≈ 149 µM)
- MIC (Escherichia coli): 32 µg/mL (≈ 74.5 µM)

SMILES: C[C@@H](O)[C@H](N)C(=O)N1CCC(Cn2cnc3cc(Br)c(Cl)cc3c2=O)CC1
- ΔTm (Salmonella enterica [1]): 12.4 °C
- inhibition (Salmonella enterica [4]): 23%

SMILES: C[C@@H](O)[C@H](N)C(=O)NC/C=C/Cn1cnc2cc(Cl)c(Cl)cc2c1=O
- ΔTm (Salmonella enterica [1]): 23.7 °C
- MIC (Staphylococcus aureus [2]): 32 µg/mL (≈ 83.1 µM)
- IC50 [6]: 1.4 µM
- MIC (Salmonella enterica [3]): 16 µg/mL (≈ 41.5 µM)
- inhibition (Salmonella enterica [4]): 101%
- MIC (Pseudomonas aeruginosa): 32 µg/mL (≈ 83.1 µM)
- MIC (Staphylococcus aureus [5]): 32 µg/mL (≈ 83.1 µM)
- MIC (Enterococcus faecalis): 32 µg/mL (≈ 83.1 µM)
- Kd [7]: 1.36 µM
- MIC (Escherichia coli): 16 µg/mL (≈ 41.5 µM)

SMILES: COc1cc2ncn(C/C=C/CNC(=O)[C@@H](N)[C@@H](C)O)c(=O)c2cc1OC
- ΔTm (Salmonella enterica [1]): 1.5 °C
- inhibition (Salmonella enterica [4]): 0%

SMILES: C[C@@H](O)[C@H](N)C(=O)NCCCCCn1cnc2cc(Br)c(Cl)cc2c1=O
- ΔTm (Salmonella enterica [1]): 14 °C
- IC50 [6]: 29.7 µM
- inhibition (Salmonella enterica [4]): 87%

SMILES: C[C@@H](O)[C@H](N)C(=O)NC/C=C/Cn1cnc2cc(Cl)c(F)cc2c1=O
- ΔTm (Salmonella enterica [1]): 18.8 °C
- IC50 [6]: 9.7 µM
- inhibition (Salmonella enterica [4]): 93%

SMILES: C[C@@H](O)[C@H](N)C(=O)NC/C=C/Cn1cnc2cc3c(cc2c1=O)OCCO3
- ΔTm (Salmonella enterica [1]): 0.6 °C
- inhibition (Salmonella enterica [4]): 0%

SMILES: C[C@@H](O)[C@H](N)C(=O)NC/C=C/Cn1cnc2cc(F)c(F)cc2c1=O
- ΔTm (Salmonella enterica [1]): 17.2 °C
- IC50 [6]: 39.4 µM
- inhibition (Salmonella enterica [4]): 77%

SMILES: CN[C@H](CC(C)C)C(=O)N[C@H]1C(=O)N[C@@H](CC(N)=O)C(=O)N[C@H]2C(=O)N[C@H]3C(=O)N[C@H](C(=O)N[C@H](C(=O)O)c4cc(O)cc(O)c4-c4cc3ccc4O)[C@H](O)c3ccc(c(Cl)c3)Oc3cc2cc(c3O[C@@H]2O[C@H](CO)[C@@H](O)[C@H](O)[C@H]2O[C@H]2C[C@](C)(N)[C@H](O)[C@H](C)O2)Oc2ccc(cc2Cl)[C@H]1O [VANCOMYCIN]
- MIC (Enterococcus faecalis): 2 µg/mL (≈ 1.38 µM)

SMILES: CC1(C)S[C@@H]2[C@H](NC(=O)[C@H](N)c3ccccc3)C(=O)N2[C@H]1C(=O)O [AMPICILLIN]
- MIC (Salmonella enterica [3]): 1 µg/mL (≈ 2.86 µM)
- MIC (Pseudomonas aeruginosa): 1 µg/mL (≈ 2.86 µM)
- MIC (Escherichia coli): 1 µg/mL (≈ 2.86 µM)

SMILES: C[C@@H](O)[C@H](N)C(=O)NC/C=C/Cn1cnc2cc(Br)c(Br)cc2c1=O
- ΔTm (Salmonella enterica [1]): 20.3 °C
- IC50 [6]: 2.4 µM
- inhibition (Salmonella enterica [4]): 100%

SMILES: C[C@@H](O)[C@H](N)C(=O)NC/C=C/Cn1cnc2cc3ccccc3cc2c1=O
- ΔTm (Salmonella enterica [1]): 16.9 °C
- IC50 [6]: 55.5 µM
- inhibition (Salmonella enterica [4]): 70%

SMILES: C[C@@H](O)[C@H](N)C(=O)NC/C=C/Cn1cnc2cc3c(cc2c1=O)OCO3
- ΔTm (Salmonella enterica [1]): 9.5 °C
- inhibition (Salmonella enterica [4]): 5%

SMILES: C[C@@H](O)[C@H](N)C(=O)NC/C=C/Cn1cnc2cc(Cl)c([N+](=O)[O-])cc2c1=O
- ΔTm (Salmonella enterica [1]): 0.5 °C
- inhibition (Salmonella enterica [4]): 0%

SMILES: C[C@@H](O)[C@H](N)C(=O)NC/C=C/Cn1cnc2cc(Cl)ncc2c1=O
- ΔTm (Salmonella enterica [1]): 8.6 °C
- inhibition (Salmonella enterica [4]): 34%

SMILES: C[C@@H](O)[C@H](N)C(=O)N1CCC(C(=O)Cn2cnc3cc(Br)c(Cl)cc3c2=O)CC1
- ΔTm (Salmonella enterica [1]): 0 °C
- inhibition (Salmonella enterica [4]): 0%

SMILES: C[C@@H](O)[C@H](N)C(=O)NC/C=C/Cn1cnc2cnc(F)cc2c1=O
- ΔTm (Salmonella enterica [1]): 12 °C
- inhibition (Salmonella enterica [4]): 36%

SMILES: C[C@@H](O)[C@H](N)C(=O)OCCCn1cnc2cc(Br)c(Cl)cc2c1=O
- ΔTm (Salmonella enterica [1]): 7.5 °C
- inhibition (Salmonella enterica [4]): 0%

SMILES: C[C@@H](O)[C@H](N)C(=O)OC/C=C/Cn1cnc2cc(Br)c(Cl)cc2c1=O
- ΔTm (Salmonella enterica [1]): 15.7 °C
- IC50 [6]: 9.6 µM
- inhibition (Salmonella enterica [4]): 96%

SMILES: COc1cc2c(=O)n(C/C=C/CNC(=O)[C@@H](N)[C@@H](C)O)cnc2cn1
- ΔTm (Salmonella enterica [1]): 9.6 °C
- inhibition (Salmonella enterica [4]): 17%

SMILES: C[C@@H](O)[C@H](N)C(=O)NCCCCCCn1cnc2cc(Br)c(Cl)cc2c1=O
- ΔTm (Salmonella enterica [1]): 12.4 °C
- IC50 [6]: 7.3 µM
- inhibition (Salmonella enterica [4]): 96%

SMILES: C[C@@H](O)[C@H](N)C(=O)OCCCCCCn1cnc2cc(Br)c(Cl)cc2c1=O
- ΔTm (Salmonella enterica [1]): 9.9 °C
- inhibition (Salmonella enterica [4]): 32%

SMILES: C[C@@H](O)[C@H](N)C(=O)NC/C=C/Cn1cnc2cc(C(F)(F)F)ccc2c1=O
- ΔTm (Salmonella enterica [1]): 11.9 °C
- inhibition (Salmonella enterica [4]): 21%

SMILES: C[C@@H](O)[C@H](N)C(=O)OCCCCn1cnc2cc(Br)c(Cl)cc2c1=O
- ΔTm (Salmonella enterica [1]): 10.2 °C
- inhibition (Salmonella enterica [4]): 42%

SMILES: C[C@@H](O)[C@H](N)C(=O)NC/C=C/Cn1cnc2ccccc2c1=O
- ΔTm (Salmonella enterica [1]): 9.2 °C
- inhibition (Salmonella enterica [4]): 15%

SMILES: Cc1cc2ncn(C/C=C/CNC(=O)[C@@H](N)[C@@H](C)O)c(=O)c2cc1C
- ΔTm (Salmonella enterica [1]): 10.6 °C
- inhibition (Salmonella enterica [4]): 7%

SMILES: C[C@@H](O)[C@H](N)C(=O)NC/C=C/Cn1cnc2cnc(Cl)cc2c1=O
- ΔTm (Salmonella enterica [1]): 14.9 °C
- IC50 [6]: 49.7 µM
- inhibition (Salmonella enterica [4]): 68%

SMILES: C[C@@H](O)[C@H](N)C(=O)OCCCCCn1cnc2cc(Br)c(Cl)cc2c1=O
- ΔTm (Salmonella enterica [1]): 9.8 °C
- inhibition (Salmonella enterica [4]): 30%
